Source: patent publication US10087172B2, “Compounds and their methods of use” (AGIOS PHARMACEUTICALS, INC, priority 2012, dated 2018)

Molecular target: T1, glutaminase (GAC) (Homo sapiens, UniProt O94925)
T1 sequence (O94925 55-598 isoform O94925-3 limits assumed): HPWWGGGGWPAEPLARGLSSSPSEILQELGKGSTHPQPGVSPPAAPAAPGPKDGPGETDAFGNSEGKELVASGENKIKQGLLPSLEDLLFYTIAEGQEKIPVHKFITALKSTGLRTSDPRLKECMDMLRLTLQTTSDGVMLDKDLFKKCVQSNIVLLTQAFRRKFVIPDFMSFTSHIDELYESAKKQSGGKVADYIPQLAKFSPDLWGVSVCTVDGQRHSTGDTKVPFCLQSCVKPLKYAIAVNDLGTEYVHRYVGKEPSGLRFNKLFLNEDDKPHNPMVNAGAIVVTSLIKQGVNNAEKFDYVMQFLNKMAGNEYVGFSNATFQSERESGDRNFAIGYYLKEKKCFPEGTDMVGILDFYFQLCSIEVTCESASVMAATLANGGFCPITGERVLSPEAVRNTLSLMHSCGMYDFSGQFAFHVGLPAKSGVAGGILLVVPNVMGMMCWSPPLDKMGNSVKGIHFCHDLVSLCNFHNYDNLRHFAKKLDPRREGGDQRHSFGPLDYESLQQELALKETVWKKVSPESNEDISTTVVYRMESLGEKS
Assay: Glutaminase (GAC) coupled endpoint enzymatic assay (glutamate dehydrogenase/diaphorase/resazurin, Ex544/Em590)
Assay type: biochemical
Conditions: inhibition of glutaminase, tested in an assay of Example A or Example B; class symbols A-E
Text: In certain embodiments, exemplary compounds of Formula I include the compounds described in Table 1 and in the Examples. A compound described herein may be tested for its ability to inhibit glutaminase, e.g., by an assay as described in the Examples. For simplicity, the inhibition activity of these compounds is represented as an IC50 tested in an assay of Example A or Example B in Table 1. […] “N/A” refers to compounds wherein the IC50 is unavailable.
In this example, the enzymatic activity of glutaminase is measured through a coupled endpoint assay. Glutamine and phosphate are supplied to GAC at a concentration equal to Km and AC50, respectively, and GAC concentration is adjusted to give a linear reaction for 60 minutes. The glutamate produced is converted to 2-OG by a kinetic excess of glutamate dehydrogenase. This second step is configured for 2× Km for NAD, since excess NAD is inhibitory. However, a kinetic excess of the third coupling enzyme, diaphorase, recycles NAD from NADH to keep the NAD concentration constant during the timecourse of the assay. Diaphorase, also supplied in kinetic excess, oxidizes NADH produced by GDH back to NAD with the concomitant reduction of rezasurin to the highly fluorescent resorufin. Resorufin in measured after the assay is stopped with SDS by Ex544/Em590. A reduction in the signal indicates inhibition of some component of the coupled enzyme system. Prospective hits are counterscreened against GDH/diaphorase alone to remove hits to the coupling enzyme system in a second assay.
2. Buffers 2× Buffer (300 mM NaCl, 100 mM HEPES pH 8.5, 0.1% BSA, 0.5 mM EDTA, 100 mM sodium phosphate pH 8.5) 5× Substrate Mix (1× Buffer final concentration, with 13 mM glutamine, 100 μM resazurin, 50 μg/ml diaphorase) 1.2× Enzyme Mix (1× Buffer final concentration, with 0.875 μg/ml GAC, 1.56 mM NAD, 6.25 units/ml GDH) Stop Mix (6% SDS in ddH2O) Reaction Procedure 1. Add 1 μl compound in 100% DMSO 2. Add 40 μl of Enzyme Mix and incubate for 60 minute at room temperature 3. Add 10 μl of Substrate Mix to start reaction 4. Stop reaction with 25 μl of 6% SDS and read Ex544 Em 590

SMILES | IC50 [nM]
CN(C)c1cccnc1CC(=O)Nc1nnc([C@H]2CCC[C@H](c3nnc(NC(=O)Cc4ncccc4N(C)C)s3)C2)s1 (relative stereo) [Compound 115, N,N′-(5,5′-(trans-cyclohexane-1,3-diyl)bis(1,3,4-thiadiazole-5,2-diyl))bis(2-(3-(dimethylamino)pyridin-2-yl)acetamide)] | 500 to 1000
CC(C)C(=O)Nc1nnc([C@H]2CCC[C@H](c3nnc(NC(=O)C(C)C)s3)C2)s1 (single isomer, unassigned) [Compound 98] | 100 to 500
CC(=O)Nc1nnc([C@H]2CCC[C@H](c3nnc(NC(C)=O)s3)C2)s1 (single isomer, unassigned) [Compound 99] | 100 to 500
O=C(Cc1ccccn1)Nc1nnc(CC2CCC(Cc3nnc(NC(=O)Cc4ccccn4)s3)CC2)s1 [Compound 2, N,N′-(5,5′-((1R,4R)-cyclohexane-1,4-diylbis(methylene)bis(1,3,4-thiadiazole-5,2-diyl))bis(2-(pyridin-2-yl)acetamide)] | 500 to 1000
O=C(Cc1ccccn1)Nc1nnc([C@@H]2CCC[C@@H](c3nnc(NC(=O)Cc4ccccn4)s3)C2)s1 [Compound 17, N,N′-(5,5′-((1R,3R)-cyclohexane-1,3-diyl)bis(1,3,4-thiadiazole-5,2-diyl))bis(2-(pyridin-2-yl)acetamide)] | 1000 to 2000
O=C(Cc1cccnc1)Nc1nnc([C@H]2CCC[C@H](c3nnc(NC(=O)Cc4cccnc4)s3)C2)s1 [Compound 28, N,N′-(5,5′-((1S,3S)-cyclohexane-1,3-diyl)bis(1,3,4-thiadiazole-5,2-diyl))bis(2-(pyridin-3-yl)acetamide)] | < 100
O=C(Cc1ccncc1)Nc1nnc([C@H]2CCC[C@H](c3nnc(NC(=O)Cc4ccncc4)s3)C2)s1 [Compound 29, N,N′-(5,5′-((1S,3S)-cyclohexane-1,3-diyl)bis(1,3,4-thiadiazole-5,2-diyl))bis(2-(pyridin-4-yl)acetamide)] | < 100
Cc1cc(CC(=O)Nc2nnc([C@H]3CCC[C@H](c4nnc(NC(=O)Cc5cc(C)no5)s4)C3)s2)on1 [Compound 30, N,N′-(5,5′-((1S,3S)-cyclohexane-1,3-diyl)bis(1,3,4-thiadiazole-5,2-diyl))bis(2-(3-methylisoxazol-5-yl)acetamide)] | < 100
CN(C)c1ccc(CC(=O)Nc2nnc([C@H]3CCC[C@H](c4nnc(NC(=O)Cc5ccc(N(C)C)cc5)s4)C3)s2)cc1 [Compound 31, N,N′-(5,5′-((1S,3S)-cyclohexane-1,3-diyl)bis(1,3,4-thiadiazole-5,2-diyl))bis(2-(4-(dimethylamino)phenyl)acetamide)] | < 100
O=C(Cc1cc2ccccc2[nH]1)Nc1nnc([C@H]2CCC[C@H](c3nnc(NC(=O)Cc4cc5ccccc5[nH]4)s3)C2)s1 [Compound 34] | 100 to 500
CN(C)c1cccc(CC(=O)Nc2nnc([C@H]3CCC[C@H](c4nnc(NC(=O)Cc5cccc(N(C)C)c5)s4)C3)s2)c1 [Compound 35, N,N′-(5,5′-((1S,3S)-cyclohexane-1,3-diyl)bis(1,3,4-thiadiazole-5,2-diyl))bis(2-(3-(dimethylamino)phenyl)acetamide)] | < 100
CCCC(=O)Nc1nnc([C@H]2CCC[C@H](c3nnc(NC(=O)CCC)s3)C2)s1 [Compound 37, N,N′-(5,5′-((1S,3S)-cyclohexane-1,3-diyl)bis(1,3,4-thiadiazole-5,2-diyl))dibutyramide] | 100 to 500
O=C(Nc1nnc([C@H]2CCC[C@H](c3nnc(NC(=O)c4ccccc4)s3)C2)s1)c1ccccc1 [Compound 39, N,N′-(5,5′-((1S,3S)-cyclohexane-1,3-diyl)bis(1,3,4-thiadiazole-5,2-diyl))dibenzamide] | 1000 to 2000
CCC(=O)Nc1nnc([C@H]2CCC[C@H](c3nnc(NC(=O)CC)s3)C2)s1 [Compound 40, N,N′-(5,5′-((1S,3S)-cyclohexane-1,3-diyl)bis(1,3,4-thiadiazole-5,2-diyl))dipropionamide] | 100 to 500
CC(=O)Nc1nnc([C@H]2CCC[C@H](c3nnc(NC(C)=O)s3)C2)s1 [Compound 41] | 100 to 500
O=C(Cc1cccc(Cl)c1)Nc1nnc([C@H]2CCC[C@H](c3nnc(NC(=O)Cc4cccc(Cl)c4)s3)C2)s1 [Compound 43, N,N′-(5,5′-((1S,3S)-cyclohexane-1,3-diyl)bis(1,3,4-thiadiazole-5,2-diyl))bis(2-(3-chlorophenyl)acetamide)] | 100 to 500
O=C(/C=C/c1ccccn1)Nc1nnc([C@H]2CCC[C@H](c3nnc(NC(=O)/C=C/c4ccccn4)s3)C2)s1 [Compound 45, (2E,2′E)-N,N′-(5,5′-((1S,3S)-cyclohexane-1,3-diyl)bis(1,3,4-thiadiazole-5,2-diyl))bis(3-(pyridin-2-yl)acrylamide)] | 100 to 500
CSCCC(=O)Nc1nnc([C@H]2CCC[C@H](c3nnc(NC(=O)CCSC)s3)C2)s1 [Compound 46, N,N′-(5,5′-((1S,3S)-cyclohexane-1,3-diyl)bis(1,3,4-thiadiazole-5,2-diyl))bis(3-(methylthio)propanamide)] | 100 to 500

More lines, now with the values ahead:

IC50 [nM] | SMILES
< 100 | O=C(Cc1cnccn1)Nc1nnc([C@H]2CCC[C@H](c3nnc(NC(=O)Cc4cnccn4)s3)C2)s1 (relative stereo) [Compound 76]
< 100 | N#Cc1cccnc1CC(=O)Nc1nnc([C@H]2CCC[C@H](c3nnc(NC(=O)Cc4ncccc4C#N)s3)C2)s1 (relative stereo) [Compound 113, N,N′-(5,5′-(trans-cyclohexane-1,3-diyl)bis(1,3,4-thiadiazole-5,2-diyl))bis(2-(3-cyanopyridin-2-yl)acetamide)]
< 100 | O=C(Cc1ccccn1)Nc1nnc([C@H]2CCC[C@H](c3nnc(NC(=O)Cc4ccccn4)s3)C2)s1 (single isomer, unassigned) [Compound 14]
< 100 | COc1ccccc1CC(=O)Nc1nnc([C@H]2CCC[C@H](c3nnc(NC(=O)Cc4ccccc4OC)s3)C2)s1 (single isomer, unassigned) [Compound 70]
< 100 | COc1cccc(CC(=O)Nc2nnc([C@H]3CCC[C@H](c4nnc(NC(=O)Cc5cccc(OC)c5)s4)C3)s2)c1 (single isomer, unassigned) [Compound 71]
< 100 | N#Cc1cccc(CC(=O)Nc2nnc([C@H]3CCC[C@H](c4nnc(NC(=O)Cc5cccc(C#N)c5)s4)C3)s2)c1 (single isomer, unassigned) [Compound 73]
< 100 | COc1cccc(CC(=O)Nc2nnc([C@H]3CCC[C@H](c4nnc(NC(=O)Cc5cccc(OC)n5)s4)C3)s2)n1 (single isomer, unassigned) [Compound 84]
< 100 | N#Cc1ccc(CC(=O)Nc2nnc([C@H]3CCC[C@H](c4nnc(NC(=O)Cc5ccc(C#N)cn5)s4)C3)s2)nc1 (single isomer, unassigned) [Compound 101]
< 100 | CN(C)c1cccc(CC(=O)Nc2nnc([C@H]3CCC[C@H](c4nnc(NC(=O)Cc5cccc(N(C)C)n5)s4)C3)s2)n1 (single isomer, unassigned) [Compound 105]
< 100 | CC(=O)Nc1ccc(CC(=O)Nc2nnc([C@H]3CCC[C@H](c4nnc(NC(=O)Cc5ccc(NC(C)=O)cc5)s4)C3)s2)cc1 (single isomer, unassigned) [Compound 106]
< 100 | COc1ccccc1CC(=O)Nc1nnc([C@@H]2CC[C@@H](c3nnc(NC(=O)Cc4ccccc4OC)s3)C2)s1 (stereo in doubt) [Compound 291, N,N′-(5,5′-((1S,3S)-cyclopentane-1,3-diyl)bis(1,3,4-thiadiazole-5,2-diyl))bis(2-(2-methoxyphenyl)acetamide)]
< 100 | O=C(Cc1ccc2c(c1)OCO2)Nc1nnc([C@H]2CCC[C@H](c3nnc(NC(=O)Cc4ccc5c(c4)OCO5)s3)C2)s1 [Cmpd 86]
< 100 | O=C(Cc1ncccn1)Nc1nnc([C@H]2CCC[C@H](c3nnc(NC(=O)Cc4ncccn4)s3)C2)s1 [Compound 27, N,N′-(5,5′-((1S,3S)-cyclohexane-1,3-diyl)bis(1,3,4-thiadiazole-5,2-diyl))bis(2-(pyrimidin-2-yl)acetamide)]
